Measured values published in ChEMBL document CHEMBL1133192, “sp2-bridged diaryl retinoids: effects of bridge-region substitution on retinoid X receptor (RXR) selectivity” (Bioorg Med Chem Lett, 2000).
pIC50: −log10 of the molar value. Values belong to the molecule of their own block, whether it stands above or below them. Calls of active or inactive are those of the source. No cut-off for these calls is given here.

Legend:
MDA-MB-231 [1] = assay: Effect on MDA-MB-231 cell proliferation with trans-RA; No inhibition; format: functional, cell-based; settings: Homo sapiens
[2] = molecular target: T1, Retinoic acid receptor RXR-alpha (Homo sapiens, UniProt P19793); assay: Transcriptional activation in CV-1 cells expressing Retinoid X receptor RXR-alpha; format: cell-based, Cercopithecidae
T1 sequence (P19793 whole entry): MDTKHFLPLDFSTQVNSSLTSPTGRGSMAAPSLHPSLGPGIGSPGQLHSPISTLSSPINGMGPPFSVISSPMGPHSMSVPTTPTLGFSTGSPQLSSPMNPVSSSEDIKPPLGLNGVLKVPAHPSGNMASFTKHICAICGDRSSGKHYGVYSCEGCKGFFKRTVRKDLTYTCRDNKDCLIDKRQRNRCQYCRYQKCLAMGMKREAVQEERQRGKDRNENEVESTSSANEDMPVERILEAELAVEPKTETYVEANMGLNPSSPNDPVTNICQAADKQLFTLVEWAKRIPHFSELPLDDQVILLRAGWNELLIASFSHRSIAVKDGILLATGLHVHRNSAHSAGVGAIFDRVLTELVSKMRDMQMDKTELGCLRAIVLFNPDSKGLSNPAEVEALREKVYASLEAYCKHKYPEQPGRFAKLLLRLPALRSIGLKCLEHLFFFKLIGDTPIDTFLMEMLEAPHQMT

MDA-MB-231 [3] = assay: Effect on MDA-MB-231 cell proliferation; No inhibition; format: functional, cell-based; settings: Homo sapiens
MDA-MB-231 [4] = assay: Inhibition of MDA-MB-231 cell proliferation after seven days at 12.5 uM; format: functional; settings: Homo sapiens, MDA-MB-231, 168 h
[5] = molecular target: T2, Retinoic acid receptor gamma (Homo sapiens) (UniProt P13631); assay: Percent transcriptional activation of Retinoic acid receptor RAR gamma receptor at 1 uM compared to 1 uM trans-retinoic acid
T2 sequence (whole entry): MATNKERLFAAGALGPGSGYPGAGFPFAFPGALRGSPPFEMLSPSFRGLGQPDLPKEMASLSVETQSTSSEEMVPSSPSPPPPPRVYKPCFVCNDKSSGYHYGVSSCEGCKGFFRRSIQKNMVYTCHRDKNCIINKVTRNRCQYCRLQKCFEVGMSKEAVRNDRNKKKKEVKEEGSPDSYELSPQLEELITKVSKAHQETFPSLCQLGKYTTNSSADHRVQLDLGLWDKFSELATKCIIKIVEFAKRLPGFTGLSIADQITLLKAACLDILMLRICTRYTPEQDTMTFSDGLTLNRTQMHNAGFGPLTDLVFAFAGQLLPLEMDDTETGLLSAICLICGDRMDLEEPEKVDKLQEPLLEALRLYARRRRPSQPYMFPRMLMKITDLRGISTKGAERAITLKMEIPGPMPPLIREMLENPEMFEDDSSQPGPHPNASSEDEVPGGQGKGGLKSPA

[6] = molecular target: T3, Retinoic acid receptor alpha (Homo sapiens) (UniProt P10276); assay: Percent transcriptional activation of Retinoic acid receptor RAR alpha at 1 uM compared to 1 uM trans-retinoic acid
T3 sequence (whole entry): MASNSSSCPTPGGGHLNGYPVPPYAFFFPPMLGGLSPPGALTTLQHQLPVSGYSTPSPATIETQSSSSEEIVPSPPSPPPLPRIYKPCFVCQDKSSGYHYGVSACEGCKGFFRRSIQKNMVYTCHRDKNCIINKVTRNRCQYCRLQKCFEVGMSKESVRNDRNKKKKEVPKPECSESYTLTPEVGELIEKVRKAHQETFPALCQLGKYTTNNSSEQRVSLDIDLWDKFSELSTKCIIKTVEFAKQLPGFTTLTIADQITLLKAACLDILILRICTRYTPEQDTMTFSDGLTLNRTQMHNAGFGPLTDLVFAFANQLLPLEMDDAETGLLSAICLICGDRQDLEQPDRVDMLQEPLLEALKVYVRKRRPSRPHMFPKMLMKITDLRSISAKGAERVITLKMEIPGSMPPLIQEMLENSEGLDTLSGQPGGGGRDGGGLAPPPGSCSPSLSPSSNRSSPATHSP

[7] = molecular target: T4, Retinoic acid receptor beta (Homo sapiens) (UniProt P10826); assay: Percent transcriptional activation of Retinoic acid receptor beta at 1 uM compared to 1 uM trans-retinoic acid
T4 sequence (whole entry): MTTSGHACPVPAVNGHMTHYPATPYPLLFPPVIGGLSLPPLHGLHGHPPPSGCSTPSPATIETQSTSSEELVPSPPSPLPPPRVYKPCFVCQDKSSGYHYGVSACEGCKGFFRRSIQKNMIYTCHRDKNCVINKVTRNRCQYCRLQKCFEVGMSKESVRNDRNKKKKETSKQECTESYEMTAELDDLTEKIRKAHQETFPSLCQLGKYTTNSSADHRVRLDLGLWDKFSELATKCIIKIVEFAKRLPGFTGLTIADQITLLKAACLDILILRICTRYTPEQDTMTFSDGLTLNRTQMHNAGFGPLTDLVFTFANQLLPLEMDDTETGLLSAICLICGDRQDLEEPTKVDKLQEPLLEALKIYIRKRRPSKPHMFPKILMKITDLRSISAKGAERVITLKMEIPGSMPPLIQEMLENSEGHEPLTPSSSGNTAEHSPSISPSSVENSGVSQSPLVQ

[8] = molecular target: T1, Retinoic acid receptor RXR-alpha; assay: Transcriptional activation in CV-1 expressing retinoid X receptor RXR alpha
MDA-MB-231 [9] = assay: Effect on MDA-MB-231 cell proliferation; No effect; format: functional, cell-based; settings: Homo sapiens
MDA-MB-231 [10] = assay: Effect on MDA-MB-231 cell proliferation with compound 8; Significant inhibition; format: functional, cell-based; settings: Homo sapiens
MDA-MB-231 [11] = assay: Inhibition of MDA-MB-231 cell proliferation after seven days; format: functional, cell-based; settings: Homo sapiens, MDA-MB-231, 168 h

AC50 [2]: 22 nM
SMILES: CC(C)=C(c1ccc(C(=O)O)cc1)c1cc2c(cc1C)C(C)(C)CCC2(C)C
Activity (MDA-MB-231 [1]): inactive | Activity (MDA-MB-231 [3]): inactive

Activation [5]: 126% | Activation [6]: 105% | Activation [7]: 112%
SMILES: CC1=C(/C=C/C(C)=C\C=C\C(C)=C\C(=O)O)C(C)(C)CCC1 [ALITRETINOIN]
inhibition at 12.5 µM (MDA-MB-231 [4]): 45%

AC50 [2]: 160 nM
SMILES: CC(C)=C(c1ccc(C(=O)O)cc1)c1ccc2c(c1)C(C)(C)CCC2(C)C

SMILES: CC1(C)CCC(C)(C)c2cc(-c3cccc4cc(C(=O)O)ccc34)ccc21
AC50 [8]: > 1000 nM

AC50 [2]: < 10 nM
SMILES: Cc1cc2c(cc1C(=C1CC1)c1ccc(C(=O)O)cc1)C(C)(C)CCC2(C)C

SMILES: CC1=C(/C=C/C(C)=C/C=C/C(C)=C/C(=O)O)C(C)(C)CCC1
Activity (MDA-MB-231 [9]): inactive | Activity (MDA-MB-231 [10]): Active

AC50 [2]: > 1000 nM
SMILES: CC(C)/C=C(/c1ccc(C(=O)O)cc1)c1ccc2c(c1)C(C)(C)CCC2(C)C

pIC50 (MDA-MB-231 [11]): 5.96 | AC50 [2]: 5 nM
SMILES: CC1(C)CCC(C)(C)c2cc(C(=C3CC3)c3ccc(C(=O)O)cc3)ccc21
